Measured values as given in ChEMBL document CHEMBL1201862, “PubChem BioAssay data set” (2004).
The source made the active and inactive calls.

Columns and labels:
[1] = target: T1, Heat shock factor protein 1 (Mus musculus, UniProt P38532); test: decrease of HSF1-responsive luciferase luminescence – cell-based, NIH3T3, dose retest, confirmation (AID 2382); type: functional;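 note: NIH3T3 fibroblasts with HSF1-driven luciferase reporter stressed by proteasome inhibitor MG132; luminescence from HSF1-driven luciferase expression after 8 hours of MG132 stress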
T1 sequence (P38532 whole entry): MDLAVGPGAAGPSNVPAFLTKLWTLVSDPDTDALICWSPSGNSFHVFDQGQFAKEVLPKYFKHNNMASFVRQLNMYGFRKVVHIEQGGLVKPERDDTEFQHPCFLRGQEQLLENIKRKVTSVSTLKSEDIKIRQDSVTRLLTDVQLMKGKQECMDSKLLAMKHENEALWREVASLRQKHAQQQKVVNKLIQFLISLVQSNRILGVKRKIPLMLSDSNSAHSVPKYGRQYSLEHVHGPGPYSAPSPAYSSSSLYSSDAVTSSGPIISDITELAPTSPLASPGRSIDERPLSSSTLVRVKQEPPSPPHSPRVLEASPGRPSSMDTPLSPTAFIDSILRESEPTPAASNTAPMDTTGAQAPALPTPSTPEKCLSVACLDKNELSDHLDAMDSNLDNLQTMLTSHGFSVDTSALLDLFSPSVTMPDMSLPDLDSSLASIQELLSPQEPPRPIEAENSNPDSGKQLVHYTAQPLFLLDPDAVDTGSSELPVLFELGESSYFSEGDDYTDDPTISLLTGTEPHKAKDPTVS

[2] = target: T2, Rac GTPase-activating protein 1 (Homo sapiens, UniProt Q9H0H5); test: blockers of MgcRacGAP-driven Rac1 GTP hydrolysis – biochemical, ADP Hunter fluorescence, primary and confirmatory, confirmation (AID 624330); type: functional
T2 sequence (Q9H0H5 whole entry): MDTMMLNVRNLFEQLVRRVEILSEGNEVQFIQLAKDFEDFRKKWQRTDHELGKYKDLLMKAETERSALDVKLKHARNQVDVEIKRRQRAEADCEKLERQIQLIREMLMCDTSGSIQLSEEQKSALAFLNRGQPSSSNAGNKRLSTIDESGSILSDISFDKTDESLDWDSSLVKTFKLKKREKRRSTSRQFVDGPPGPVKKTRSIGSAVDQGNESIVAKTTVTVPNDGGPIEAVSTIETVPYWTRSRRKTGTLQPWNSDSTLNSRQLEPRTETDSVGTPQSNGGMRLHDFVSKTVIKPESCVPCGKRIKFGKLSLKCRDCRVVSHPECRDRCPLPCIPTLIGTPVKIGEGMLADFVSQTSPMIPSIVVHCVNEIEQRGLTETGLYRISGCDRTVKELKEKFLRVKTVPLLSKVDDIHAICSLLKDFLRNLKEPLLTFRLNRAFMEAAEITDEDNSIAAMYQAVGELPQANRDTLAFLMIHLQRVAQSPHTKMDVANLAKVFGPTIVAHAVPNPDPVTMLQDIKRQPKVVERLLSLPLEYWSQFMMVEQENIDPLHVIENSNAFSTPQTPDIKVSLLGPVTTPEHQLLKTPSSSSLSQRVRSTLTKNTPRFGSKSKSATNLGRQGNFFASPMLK

[3] = target: T3, RNA-binding protein pos-1 (Caenorhabditis elegans, UniProt G5EF15); test: disruptors of C. elegans POS-1 RNA interaction – biochemical, fluorescence polarization, dose response (AID 1964);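 note: purified POS-1 fused to maltose binding protein made in E. coli; potency of compounds blocking POS-1 binding to fluorescent RNA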
T3 sequence (G5EF15 whole entry): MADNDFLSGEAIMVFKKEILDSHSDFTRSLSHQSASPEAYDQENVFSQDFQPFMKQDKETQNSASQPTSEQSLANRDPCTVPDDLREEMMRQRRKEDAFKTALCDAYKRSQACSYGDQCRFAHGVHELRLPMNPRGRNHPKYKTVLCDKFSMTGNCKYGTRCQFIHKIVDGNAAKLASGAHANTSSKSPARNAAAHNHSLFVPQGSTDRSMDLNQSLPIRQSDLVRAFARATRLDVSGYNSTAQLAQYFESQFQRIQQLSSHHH

[4] = target: T4, Zinc finger protein mex-5 (Caenorhabditis elegans, UniProt Q9XUB2); test: potency of MEX-5 RNA-binding blockers – biochemical, C. elegans, fluorescence polarization, dose response (AID 1960)
T4 sequence (Q9XUB2 whole entry): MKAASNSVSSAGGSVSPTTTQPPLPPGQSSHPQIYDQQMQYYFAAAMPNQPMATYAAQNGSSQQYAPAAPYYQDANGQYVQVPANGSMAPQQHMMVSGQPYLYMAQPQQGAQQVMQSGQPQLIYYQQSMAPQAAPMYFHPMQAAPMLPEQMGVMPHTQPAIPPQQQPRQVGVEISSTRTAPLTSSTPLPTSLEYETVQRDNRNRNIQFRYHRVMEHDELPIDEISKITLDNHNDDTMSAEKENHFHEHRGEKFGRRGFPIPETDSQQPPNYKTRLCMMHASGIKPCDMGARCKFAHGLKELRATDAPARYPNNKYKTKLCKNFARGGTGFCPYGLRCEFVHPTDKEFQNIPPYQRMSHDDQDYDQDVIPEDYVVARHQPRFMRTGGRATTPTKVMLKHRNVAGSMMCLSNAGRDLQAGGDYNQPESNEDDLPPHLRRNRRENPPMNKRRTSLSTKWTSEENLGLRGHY

[5] = target: T5, Corticotropin-releasing factor receptor 2/Corticotropin-releasing factor-binding protein (Homo sapiens, UniProt P24387+Q13324); test: activators of CRF receptor 2 with binding protein – uHTS hits, confirmation (AID 602473); type: functional; settings: read-out: EC50_Mean
T5 sequence (Q13324 whole entry): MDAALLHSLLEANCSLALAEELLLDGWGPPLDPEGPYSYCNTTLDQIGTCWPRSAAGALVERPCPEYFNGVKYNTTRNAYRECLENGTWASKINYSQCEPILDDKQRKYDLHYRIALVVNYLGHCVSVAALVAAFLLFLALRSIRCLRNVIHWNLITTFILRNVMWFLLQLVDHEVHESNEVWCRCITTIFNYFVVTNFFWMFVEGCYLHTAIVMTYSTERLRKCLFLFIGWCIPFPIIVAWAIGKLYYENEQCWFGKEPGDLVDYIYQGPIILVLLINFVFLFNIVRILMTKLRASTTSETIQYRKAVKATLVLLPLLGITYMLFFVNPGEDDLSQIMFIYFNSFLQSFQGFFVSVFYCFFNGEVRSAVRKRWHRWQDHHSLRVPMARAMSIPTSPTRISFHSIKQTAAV
T5 sequence (P24387 whole entry): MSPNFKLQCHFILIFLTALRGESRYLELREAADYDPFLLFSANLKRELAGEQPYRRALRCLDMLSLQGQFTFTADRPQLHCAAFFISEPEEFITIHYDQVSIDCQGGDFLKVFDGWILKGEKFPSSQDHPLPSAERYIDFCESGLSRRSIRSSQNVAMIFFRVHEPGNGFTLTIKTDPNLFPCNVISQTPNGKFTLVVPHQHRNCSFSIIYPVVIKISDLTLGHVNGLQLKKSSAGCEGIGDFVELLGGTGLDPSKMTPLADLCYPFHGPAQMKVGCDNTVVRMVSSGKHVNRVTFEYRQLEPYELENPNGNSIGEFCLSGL

Cytochrome P450 1A2 = target: T6, Cytochrome P450 1A2 (Homo sapiens, UniProt P05177);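 note: PubChem cytochrome P450 panel assay, CYP1A2 panel member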
T6 sequence (P05177 whole entry): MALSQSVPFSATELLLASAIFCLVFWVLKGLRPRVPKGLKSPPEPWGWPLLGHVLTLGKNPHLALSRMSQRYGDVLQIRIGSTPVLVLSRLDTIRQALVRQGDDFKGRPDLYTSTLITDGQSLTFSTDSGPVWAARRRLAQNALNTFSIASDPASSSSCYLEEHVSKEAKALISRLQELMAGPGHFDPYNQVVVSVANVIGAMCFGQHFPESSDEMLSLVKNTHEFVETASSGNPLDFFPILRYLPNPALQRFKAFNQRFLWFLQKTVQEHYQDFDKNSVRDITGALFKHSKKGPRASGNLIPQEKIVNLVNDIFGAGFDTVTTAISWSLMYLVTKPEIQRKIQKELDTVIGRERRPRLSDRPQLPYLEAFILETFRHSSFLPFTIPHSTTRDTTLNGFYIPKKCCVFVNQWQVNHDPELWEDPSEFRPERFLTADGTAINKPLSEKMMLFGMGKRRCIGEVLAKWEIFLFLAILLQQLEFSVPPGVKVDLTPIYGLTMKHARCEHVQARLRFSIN

Cytochrome P450 2C19 = Cytochrome P450 2C19 (Homo sapiens, UniProt P33261); test: Cytochrome panel assay with activity outcomes. Panel member name: p450-cyp2c19 Compounds with AC50 equal or less than 10 uM are considered active; type: functional; settings: read-out: AC50
Cytochrome P450 2C19, sequence (P33261 whole entry): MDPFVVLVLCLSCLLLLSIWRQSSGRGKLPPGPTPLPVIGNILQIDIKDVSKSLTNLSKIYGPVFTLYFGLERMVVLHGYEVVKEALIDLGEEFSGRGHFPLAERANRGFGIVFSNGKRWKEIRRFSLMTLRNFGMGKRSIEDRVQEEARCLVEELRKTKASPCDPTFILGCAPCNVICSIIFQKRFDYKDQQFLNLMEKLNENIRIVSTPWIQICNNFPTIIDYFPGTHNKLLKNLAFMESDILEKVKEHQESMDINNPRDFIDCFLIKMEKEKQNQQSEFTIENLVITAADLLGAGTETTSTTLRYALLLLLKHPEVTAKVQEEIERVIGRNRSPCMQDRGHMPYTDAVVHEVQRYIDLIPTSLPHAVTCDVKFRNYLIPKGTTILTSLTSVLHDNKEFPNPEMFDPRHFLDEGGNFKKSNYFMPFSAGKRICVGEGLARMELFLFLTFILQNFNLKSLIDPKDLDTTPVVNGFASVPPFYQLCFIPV

Cc1onc(-c2ccccc2)c1C(=O)Nc1sc2c(c1C(N)=O)CCC2
EC50 [1]: > 195 µM (not active)

COc1ccc(NC2CCCN(C(=O)COc3ccc(C(C)=O)cc3)C2)cc1 (stereo not given)
IC50 [2]: 84 µM (active)

COc1cc(/C=N/Nc2ccc(C(F)(F)F)cn2)ccc1O
IC50 [2]: 36.3 µM (active)

COc1ccc(NC(=O)CCc2nnc3ccc(N4CCC(C)CC4)nn23)cc1OC
EC50 [1]: > 195 µM (not active)

CCOc1ccccc1N1CCN(CC(=O)NC(C)c2ccccc2)CC1 (stereo not given)
EC50 [1]: > 195 µM (not active)

O=C(NC(=O)c1cccc(F)c1)OC[C@@H]1CCCN2CCCC[C@H]12
EC50 [1]: > 195 µM (not active)

O=C(NNC(=O)c1ccccc1[N+](=O)[O-])c1csc(N2CCOCC2)n1
EC50 [3]: 84.9 µM (active) | EC50 [4]: 0.731 µM (active)

Cc1ccc(-c2nn[nH]n2)o1
EC50 [1]: > 195 µM (not active)

COc1ccc2c(COC(=O)CCS(=O)(=O)c3ccc(C)cc3)cc(=O)oc2c1
EC50 [1]: > 195 µM (not active)

Cc1ccc2c(c1)N(C(=O)CCC(=O)N1CCN(c3ccccn3)CC1)CCO2
EC50 [5]: > 53 µM (inactive)

Cc1cccc(C)c1NC(=O)c1cccnc1
EC50 [1]: > 195 µM (not active)

Cc1oc(C(=O)O)cc1COc1ccc2c3c(c(=O)oc2c1C)CCC3
EC50 [1]: > 195 µM (not active)

CCOC(=O)c1c(NC(=O)CN2CCCCC2)sc2c1CCC(C=O)=C2Cl
EC50 [1]: > 195 µM (not active)

Cc1ccc(S(=O)(=O)NCC(=O)N(CC(=O)NCc2ccco2)Cc2ccccc2)cc1
EC50 [5]: 10.1 µM (active)

COCCNC(=O)Cn1cc(/C=N/NC(=O)c2ccc(Oc3ccc(O)cc3)cc2)c2ccccc21
IC50 [2]: 53.3 µM (active)

COc1cc(/C=C/C(=O)OCC(=O)NCc2ccc(F)cc2)ccc1O
IC50 [2]: 36.3 µM (active)

COC(=O)C1=C(C)N(c2ccc(Cl)cc2)/C(=C/c2cccs2)C1=O
EC50 [3]: > 300 µM (not active) | EC50 [4]: > 300 µM (not active)

COc1cc(C2C(C#N)=C(N)N(N(C)C)C3=C2C(=O)CC(C)(C)C3)ccc1O (stereo not given)
EC50 [1]: > 195 µM (not active)

CC(Oc1ccc(Br)cc1)C(=O)Nc1ccc(S(=O)(=O)NC2=NCCCCC2)cc1 (stereo not given)
EC50 [5]: 4.66 µM (active)

O=C(Cc1ccccc1)Nc1ccc(N2CCOCC2)cc1N1CCOCC1
EC50 [3]: > 300 µM (not active) | EC50 [4]: > 300 µM (not active)

Cc1cc(/C=N/n2cnnc2)c(C)n1-c1cccc(C(=O)O)c1
EC50 [3]: > 300 µM (not active) | EC50 [4]: > 300 µM (not active)

CCOC(=O)c1cnn(-c2cc(Oc3ccccc3)ncn2)c1N
AC50 (Cytochrome P450 1A2): 14.1 µM (inconclusive) | AC50 (Cytochrome P450 2C19): 31.6 µM (inconclusive)

COc1cc(/C=C/c2nc(O)c3ccccc3n2)ccc1O
IC50 [2]: 41.4 µM (active)

COc1ccc(CCN2C(=O)NC(=O)/C(=C\Nc3ccc(NC(C)=O)cc3)C2=O)cc1OC
EC50 [3]: > 300 µM (not active) | EC50 [4]: > 300 µM (not active)

CCOc1ccc(C2=CC(c3ccccc3)n3ncnc3N2)cc1 (stereo not given)
EC50 [5]: > 53 µM (inactive)

O=C(CSc1nnc(CNC(=O)c2cccs2)o1)NCc1ccc(F)cc1
EC50 [1]: > 195 µM (not active)

C=CCN1C(=O)NC(=O)/C(=C/C=C/Nc2ccccc2)C1=O
EC50 [3]: > 300 µM (not active) | EC50 [4]: > 300 µM (inconclusive)

Cc1nn(CC(=O)N(C)C2(C#N)CCCCC2)c(C)c1[N+](=O)[O-]
EC50 [5]: > 53 µM (inactive)

C=CCn1c(N/N=C/c2ccc(O)cc2)nc2ccccc2c1=O
IC50 [2]: 46.8 µM (active)

O=C(Cc1coc2cc(O)ccc12)NNC(=O)c1cccs1
IC50 [2]: 32.7 µM (active)

CCOc1ccc(/C=N/NC(=O)C(O)c2ccccc2)c(O)c1 (stereo not given)
EC50 [1]: > 195 µM (not active)

CCOC(=O)C1CCN(C2=NC(=O)/C(=C/c3ccc(O)cc3)S2)CC1
IC50 [2]: 21.2 µM (active)

COc1ccc2oc(=O)c(N3C(=O)c4ccccc4C3=O)cc2c1
EC50 [1]: > 195 µM (not active)

CC1(C)CC2=Nc3ccccc3NCC2=C(O)C1
EC50 [5]: > 53 µM (inactive)

COc1ccc(CN(C)CCc2ccccn2)cc1OC
IC50 [2]: 74.6 µM (active)

Cc1cc(C)nc(NNC2=CC(=[N+]3CCCCC3)CC(C)(C)C2)n1
EC50 [1]: > 195 µM (not active)

Cc1cc(C)c2cc(CN(CCN(C)C)C(=O)Nc3ccccc3Cl)c(O)nc2c1
EC50 [1]: > 195 µM (not active)

COc1ccc(/N=C2/SC(C(=O)N3CCN(c4ccccc4)CC3)CC(=O)N2C)cc1 (stereo not given)
EC50 [1]: > 195 µM (not active)

Cc1nn(C(C)C(=O)NCCCc2ccccc2)c(=O)c2cc3occc3n12 (stereo not given)
EC50 [1]: > 195 µM (not active)

CC1CCC2(CC1)N=C(N)Nc1nc3ccccc3n12 (stereo not given)
AC50 (Cytochrome P450 1A2): 12.6 µM (inconclusive) | AC50 (Cytochrome P450 2C19): 17.8 µM (inconclusive) | EC50 [1]: > 195 µM (not active)

Cc1ccc(C)c(NC(=O)CCc2nnc3ccc(NCc4ccco4)nn23)c1
EC50 [1]: > 195 µM (not active)
